Activity calls are given as the source filed them. The rule behind the calls is not given here.
Legend:
Assay type in all cases: nucleic-acid assay
Nucleic Acid [1] = assay: Binding affinity to thiol-bearing RNA1 aptamer assessed as RNA1-compound conjugate formation at 1 uM by MALDI-MS 123 analysis
Nucleic Acid [2] = assay: Binding affinity to thiol-bearing RNA2 aptamer assessed as RNA2-compound conjugate formation at 1 uM by MALDI-MS 123 analysis
Nucleic Acid [3] = assay: Binding affinity to thiol-bearing RNA2 aptamer assessed as RNA2-compound conjugate formation at 1 uM after 1 hr by MALDI-MS analysis in presence of complementary DNA
Nucleic Acid [4] = assay: Binding affinity to thiol-bearing RNA1 aptamer assessed as RNA1-compound conjugate formation at 1 uM after 1 hr by MALDI-MS analysis in presence of complementary DNA
Nucleic Acid [5] = assay: Binding affinity to thiol-bearing RNA1 aptamer assessed as RNA1-compound conjugate formation at 1 uM after 1 hr by MALDI-MS analysis in presence of non-complementary DNA and 1 uM iodoacetamide
Nucleic Acid [6] = assay: Covalent binding affinity to thiol-bearing RNA1 aptamer assessed as rate constant at 1 uM by MALDI-MS analysis
Nucleic Acid [7] = assay: Binding affinity to RNA1-DNA hybrid assessed as inhibition of RNA1/DNA hybrid-compound conjugate formation at 1 uM after 1 hr by MALDI-MS analysis
Nucleic Acid [8] = assay: Binding affinity to thiol-bearing RNA1 aptamer assessed as RNA1-compound conjugate formation at 1 uM after 1 hr by MALDI-MS analysis in presence of non-complementary DNA

Compound	Activity (Nucleic Acid [1])	Activity (Nucleic Acid [2])	Activity (Nucleic Acid [3])	Activity (Nucleic Acid [4])	Activity (Nucleic Acid [5]) [%]	K (Nucleic Acid [6]) [×10⁻² /min]	Activity (Nucleic Acid [7])	Activity (Nucleic Acid [8])
CC(C)[C@H](NC(=O)[C@H](CO)NC(=O)CBr)C(=O)NCc1ccc(Nc2cc(-c3ccccc3)nc3c(C(=O)N[C@@H](CCCNC(=N)N)C(N)=O)cccc23)cc1	Active	Active	inactive	inactive				
CC(C)[C@H](NC(=O)CBr)C(=O)NCc1ccc(Nc2cc(-c3ccccc3)nc3c(C(=O)N[C@@H](CCCNC(=N)N)C(N)=O)cccc23)cc1	Active	Active	inactive	inactive				
N=C(N)NCCC[C@H](NC(=O)c1cccc2c(Nc3ccc(CNC(=O)CBr)cc3)cc(-c3ccccc3)nc12)C(N)=O	90%	Active			90	5.5	inactive	inactive

Reference: ChEMBL document CHEMBL1821595, “Covalent stabilization of a small molecule-RNA complex” (Bioorg Med Chem Lett, 2011)
